The text below walks through data of PubChem BioAssay (NCI).

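In this assay, cells in 96-well plates receive the compound at five concentrations for 48 hours. Endpoints are linearly interpolated between the surrounding concentrations. Abbreviation: GI50, concentration required for 50% inhibition of growth. TGI marks complete inhibition of growth.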 Some results are limits rather than exact numbers.

Common to all, as to assay: NCI tumour cell line growth inhibition, 48 h
The test system of test [1] is 786-0 renal.
Test [2] deals with IGROV1 ovarian.
For test [3], the system named is NCI-H226 lung.
Test [4] relates to RPMI-8226 leukemia.
Test [5] concerns SF-268 CNS.
Test [6] has as its system SK-OV-3 ovarian.
In test [7] the test system is SR leukemia.
For test [8], the system named is TK-10 renal.
Test [9] deals with U251 CNS.
In test [10] the test system is RXF 393 renal.

For `CC(=O)C1COC(O)C1C` (stereo unspecified), the TGI in test [1] is 49.8 µM; in test [2] it was 42.5 µM; in [3], 43.4 µM; in test [4], 60 µM; in [5] it was 49.9 µM; in [6] it was 82.3 µM. In addition, the TGI in test [7] is 40.1 µM; in test [8], greater than 100 µM; in test [9] it was 58.2 µM.
As for `CCn1c2ccc(C(=O)CCCN(C)C)cc2c2cc(C(=O)CCCN(C)C)ccc21`, the TGI in test [1] worked out at 2.82 µM; in test [2], 4.23 µM; in [3], 8.61 µM; in test [10], 4.3 µM; in [5], 6.62 µM; in test [6] it was 22.1 µM. For the same molecule, the TGI is 13.2 µM in test [8] and 8.46 µM in test [9].
As to `CCCCN=C(NC#N)N(Cc1ccccc1)Cc1ccccc1`, the TGI was greater than 100 µM in [1]; 74.4 µM in [2]; greater than 100 µM in test [3]; 40.8 µM in test [4]; 65.5 µM in [10]; greater than 100 µM in [5]. In addition, the values for the TGI in test [6], in [8] and in [9] were 87.6 µM, greater than 100 µM and 81.3 µM, respectively.
As to `COc1cc([C@H]2c3cc4c(cc3[C@H](NCc3ccc([N+](=O)[O-])cc3)C3COC(=O)[C@H]32)OCO4)cc(OC)c1O` (stereo partly specified), the TGI in [1] is 2.78 µM; in test [2], greater than 61.3 µM; in test [3], 1.68 µM; in [4], greater than 25.6 µM; in [10], greater than 64.6 µM; in test [5], greater than 25.9 µM. The figures for the TGI in test [6], in [8] and in test [9] were greater than 24.6 µM, 7.08 µM and 3.26 µM, respectively.
Take `CCO/C=C1\N=C(C(Cl)c2ccccc2)OC1=O` (stereo unspecified): the TGI in test [1], in test [2], in test [3], in [4], in [10] and in test [5] was greater than 100 µM each time. Besides, the TGI in test [8] is greater than 100 µM.
In the case of `CN(C(=O)C12C3(C(=O)C(C)(C)C)C4C5(C#N)C3C1(C(=O)C(C)(C)C)C5C42C(=O)C(C)(C)C)C(C)(C)C` (stereo unspecified), the TGI in test [1], in test [2], in test [3], in [5], in test [6] and in test [7] was greater than 50 µM in each case. The TGI in [8] and in test [9] was greater than 50 µM each time.
With `COc1ccc2nc(NCN3C(=O)c4ccccc4C3=O)sc2c1`, the TGI in [1], in test [2], in test [4], in [10], in test [5] and in test [6] was greater than 100 µM each time. In addition, the TGI in test [8] and in [9] was greater than 100 µM in each case.
As for `CC(C)(c1ccc(Oc2ccc(C#N)c(C#N)c2)cc1)c1ccc(Oc2ccc(C#N)c(C#N)c2)cc1`, the GI50 in test [1], in test [2], in test [4], in test [10], in test [5] and in test [6] was greater than 100 µM each time. In addition, the GI50 in [8] and in [9] was greater than 100 µM each time. Also, the TGI in test [1], in test [2], in test [4], in test [10], in test [5] and in test [6] was greater than 100 µM in each case. The TGI in test [8] and in [9] was greater than 100 µM each time.
With `COc1ccc2c(c1)CCc1[nH]nc(-c3cc(OC)c(OC)c(OC)c3)c1-2`, the GI50 in test [1], in test [2], in test [5], in test [6], in test [7] and in test [9] was less than 0.01 µM each time. Besides, the TGI in test [1] was 11.5 µM; in test [2] it was 23.7 µM; in [5], 26.8 µM; in [6], less than 0.01 µM; in [7], 22.9 µM; in test [9] it was 11.5 µM.
For `NC(=O)C(=Cc1ccc(CP(=O)(O)O)cc1)C(N)=O`, the TGI in test [1], in test [2], in test [4], in test [10], in test [6] and in test [8] was greater than 100 µM in each case. Also, the TGI in [9] was greater than 100 µM.
On to `O=c1cc(-c2ccccc2)nc(/C=C(\O)c2ccncc2)n1-c1ccccc1`, for which the TGI in test [1], in test [2], in test [3], in test [10], in test [5] and in test [6] was greater than 100 µM throughout. For the same molecule, the TGI in test [8] and in test [9] was greater than 100 µM each time.
On to `COc1ccc(OC)c(NCC#N)c1`, for which the TGI in test [1], in test [2], in test [3], in test [4], in [10] and in test [5] was greater than 100 µM each time. The TGI in test [6], in [8] and in test [9] was greater than 100 µM each time.
As to `C[C@]1(C(=O)O)N[C@H](C(=O)O)CS1`, the GI50 in test [1], in test [2], in test [3], in [4], in [10] and in test [5] was greater than 1000 µM in each case. Besides, the GI50 in test [6], in test [8] and in test [9] was greater than 1000 µM each time. In addition, the TGI in test [1], in [2], in test [3], in test [4], in test [10] and in test [5] was greater than 1000 µM in each case. Further, the TGI in [6], in test [8] and in [9] was greater than 1000 µM throughout.
In the case of `Cc1ccc(-c2cc(=O)c3cc(C)c(C)c(C(=O)O)c3o2)cc1`, the TGI in test [1], in test [2], in [4], in test [5], in [6] and in [8] was greater than 100 µM in each case. Also, the TGI in test [9] is greater than 100 µM.
Take `COc1cc(-c2csc(NC(=O)Nc3cc(C(F)(F)F)cc(C(F)(F)F)c3)n2)cc(OC)c1OC`: the GI50 was 3.17 µM in test [1]; 4.25 µM in [2]; 2.87 µM in test [3]; 0.967 µM in test [4]; 2.13 µM in test [10]; 3.64 µM in test [5]. Besides, the GI50 in test [6] is 2.59 µM; in [8], 2.45 µM; in test [9] it was 2.73 µM. Further, the TGI is 11.8 µM in [1]; 18.1 µM in test [2]; 12 µM in [3]; 3.76 µM in test [4]; 6.17 µM in [10]; 15.7 µM in test [5]. Besides, the values for the TGI in [6], in test [8] and in test [9] were 8.57 µM, 10.3 µM and 10.7 µM, respectively.
As to `COc1ccc(SC2c3ccc(C)cc3Oc3nc(N)c(C#N)c(N)c32)cc1` (stereo unspecified), the GI50 was 1.65 µM in test [1]; 1.75 µM in test [3]; 2.47 µM in [4]; 1.65 µM in test [10]; 1.62 µM in [5]; 1.78 µM in test [6]. Further, the GI50 in test [8] is 1.74 µM; in test [9], 1.81 µM. Further, the TGI came to 3.01 µM in test [1]; 3.22 µM in test [3]; 6.56 µM in test [4]; 3.01 µM in [10]; 3.04 µM in [5]; 3.17 µM in test [6]. For the same molecule, the TGI in test [8] came to 3.12 µM; in test [9], 3.22 µM.
On to `Cc1ccc(C(=O)N2c3ccccc3N(C)n3cccc3C2CC(=O)O)cc1` (stereo unspecified), for which the TGI in [1], in test [2], in test [3], in [4], in [10] and in test [5] was greater than 100 µM throughout. Further, the TGI in [8] was greater than 100 µM.
With `O=C1C2CC=CCC2C(=O)C12CCc1ccccc12` (stereo unspecified), the TGI in test [1], in test [2], in test [10], in [5], in test [6] and in test [8] was greater than 100 µM in each case. Moreover, the TGI in test [9] is greater than 100 µM.
Regarding `CC1=C(C(=O)Nc2ccc([N+](=O)[O-])cc2)C(c2ccccc2O)C(C(=O)Nc2ccc([N+](=O)[O-])cc2)=C(C)N1`, the TGI is 64.8 µM in [1]; greater than 100 µM in [2]; 46.9 µM in test [3]; 53.4 µM in [4]; 45.9 µM in test [10]; 49 µM in test [5]. Also, the TGI was 94.7 µM in test [6], greater than 100 µM in test [8] and 61.1 µM in test [9].
As for `CCOc1ccccc1N1C(=O)C(=O)C(c2nc3ccccc3o2)/C(=N\N)C1=O` (stereo unspecified), the TGI in test [1], in test [2], in [3], in test [4], in [10] and in test [5] was greater than 100 µM throughout. The TGI in test [6], in [8] and in [9] was greater than 100 µM each time.
